Assay results: the CheMixHub viscosity set
Several values for one entry are separate records, joined by “and”; a condition that tells them apart may be missing. Equal values may be shown once.

Test: xn = mol fraction of the nth substance listed

Cc1cc(C)cc(C)c1 + C[N+](=O)[O-]
293.15 K, 101.33 kPa
Conditions | viscosity [mPa·s]
x2 = 0.1192 | 0.686
x2 = 0.2065 | 0.683
x2 = 0.3019 | 0.679
x2 = 0.3858 | 0.679
x2 = 0.4761 | 0.674
x2 = 0.6061 | 0.671
x2 = 0.7112 | 0.666
x2 = 0.7985 | 0.657
x2 = 0.8912 | 0.648

O=P([O-])([O-])O.[Na+].[Na+] + O
viscosity [mPa·s]
Conditions | 293.15 K | 298.15 K | 303.15 K | 308.15 K
100 kPa, x1 = 0.01115 | – | 1.215 | 1.095 | –
100 kPa, x1 = 0.01333 | 1.455 | – | – | –
100 kPa, x1 = 0.01698 | – | – | – | 1.175
101 kPa, x1 = 0.0018 | – | 0.948 | 0.8587 | 0.7663
101 kPa, x1 = 0.0054 | – | 1.05 | 0.968 | 0.8559
101 kPa, x1 = 0.0089 | – | 1.232 | 1.076 | 0.94
101 kPa, x1 = 0.012 | – | 1.441 | 1.228 | 1.152
101 kPa, x1 = 0.016 | – | 1.727 | 1.536 | 1.452

CN(c1ccccc1)c1ccccc1 + Oc1ccccc1
101 kPa
Conditions | viscosity [mPa·s]
293.25 K, x2 = 0.0915 | 7.08
293.25 K, x2 = 0.169 | 7.15
293.25 K, x2 = 0.2877 | 7.3
293.25 K, x2 = 0.4271 | 7.64
293.25 K, x2 = 0.5326 | 7.98
293.25 K, x2 = 0.6464 | 8.45
293.25 K, x2 = 0.7197 | 8.85
293.25 K, x2 = 0.7988 | 9.35
293.25 K, x2 = 0.8785 | 9.95
293.25 K, x2 = 0.942 | 10.48
303.15 K, x2 = 0.0926 | 5.1
303.15 K, x2 = 0.1813 | 5.13
303.15 K, x2 = 0.328 | 5.19
303.15 K, x2 = 0.5156 | 5.42
303.15 K, x2 = 0.6595 | 5.7
303.15 K, x2 = 0.7615 | 5.97
303.15 K, x2 = 0.8443 | 6.26
303.15 K, x2 = 0.9 | 6.5
303.15 K, x2 = 0.9463 | 6.73
313.15 K, x2 = 0.0926 | 3.785
313.15 K, x2 = 0.1813 | 3.76
313.15 K, x2 = 0.328 | 3.77
313.15 K, x2 = 0.5156 | 3.88
313.15 K, x2 = 0.6595 | 4.02
313.15 K, x2 = 0.7615 | 4.15
313.15 K, x2 = 0.8443 | 4.28
313.15 K, x2 = 0.9 | 4.4
313.15 K, x2 = 0.9463 | 4.51

[Cl-].[Cl-].[Cl-].[Cl-].[Sn+4] + O=C(O)CCl
323.15 K, 101 kPa
Conditions | viscosity [mPa·s]
x1 = 0.025 | 3.305
x1 = 0.0506 | 3.944
x1 = 0.0951 | 4.193
x1 = 0.0957 | 4.1
x1 = 0.1491 | 4.17
x1 = 0.2041 | 3.921
x1 = 0.2511 | 2.927
x1 = 0.3456 | 2.003
x1 = 0.4928 | 1.41
x1 = 0.6663 | 0.948
x1 = 0.7708 | 0.836

OCCCCO + CN1CCCC1=O
308.15 K, 101 kPa
Conditions | viscosity [mPa·s]
x1 = 0.0277 | 1.784
x1 = 0.0556 | 1.943
x1 = 0.1011 | 2.235
x1 = 0.1982 | 3.025
x1 = 0.2982 | 4.088
x1 = 0.4038 | 5.57
x1 = 0.4943 | 7.06
x1 = 0.6011 | 11.08
x1 = 0.7044 | 16.24
x1 = 0.7935 | 21.61
x1 = 0.8996 | 33.43
x1 = 0.946 | 39.29
x1 = 0.965 | 41.43

Cc1cc(C)cc(C)c1 + ClC(Cl)(Cl)Cl
298.15 K, 101 kPa
Conditions | viscosity [mPa·s]
x1 = 0.1 | 0.8579
x1 = 0.2 | 0.8194
x1 = 0.3 | 0.7889
x1 = 0.4 | 0.7637
x1 = 0.5 | 0.7421
x1 = 0.6 | 0.7226
x1 = 0.7 | 0.7044
x1 = 0.8 | 0.6875
x1 = 0.9 | 0.672

O=P(O)(O)OP(=O)(O)O + O
viscosity, 101 kPa
Conditions | 313 K | 323 K
x1 = 0.009 | 0.95 mPa·s and 0.8 mPa·s | –
x1 = 0.015 | 1.49 mPa·s and 1.2 mPa·s | –
x1 = 0.02 | 1.75 mPa·s | 1.39 mPa·s
x1 = 0.026 | 2.86 mPa·s | 2.38 mPa·s
x1 = 0.03 | 4.79 mPa·s and 3.85 mPa·s | –
x1 = 0.0306 | 3.76 mPa·s | 2.03 mPa·s
x1 = 0.04 | 5.82 mPa·s and 4.7 mPa·s | –
x1 = 0.045 | 7.65 mPa·s | 6.05 mPa·s
x1 = 0.051 | 9.8 mPa·s and 6.88 mPa·s | –
x1 = 0.055 | 10.9 mPa·s and 8.82 mPa·s | –
x1 = 0.062 | 15.6 mPa·s | 12.16 mPa·s
